In ChEMBL document CHEMBL3885881, “DrugMatrix”:

Species: Rattus norvegicus
Assay type: toxicity, organism-based, Sprague-Dawley
Conditions: in vivo, po, route oral GAVAGE, […]; for ABSOLUTE EOSINOPHIL / ABSOLUTE LYMPHOCYTE / ABSOLUTE MONOCYTE / ABSOLUTE SEGMENTED NEUTROPHIL / BASOPHIL / EOSINOPHIL / ERYTHROCYTE COUNT / HEMATOCRIT / HEMOGLOBIN / LEUKOCYTE COUNT / LYMPHOCYTE / MEAN CORPUSCULAR HEMOGLOBIN / MEAN CORPUSCULAR HEMOGLOBIN CONCENTRATION / MEAN CORPUSCULAR VOLUME / MONOCYTE / NEUTROPHIL / NUCLEATED RED BLOOD CELLS / PLATELET COUNT: tissue Blood; for ALANINE AMINOTRANSFERASE / ALBUMIN / ALKALINE PHOSPHATASE / ASPARTATE AMINOTRANSFERASE / BLOOD UREA NITROGEN / CARBON DIOXIDE / CHLORIDE / CHOLESTEROL / CREATINE PHOSPHOKINASE / CREATININE / GLUCOSE / LACTATE DEHYDROGENASE / LIPASE / PHOSPHORUS / POTASSIUM / SODIUM / TOTAL BILIRUBIN / TOTAL PROTEIN / URIC ACID: tissue Plasma
[1] = 0 mg/kg, 6 h, vehicle control, dose level Control, time 0.25 day
[2] = 0 mg/kg, 24 h, vehicle control, dose level Control, time 1 day
[3] = 400 mg/kg, 6 h, dose level Low, time 0.25 day

Description: DrugMatrix - Regimen: Single

Structure (SMILES): ClC(Cl)(Cl)Cl [CARBON TETRACHLORIDE]
- ABSOLUTE EOSINOPHIL [1]: 61.17 CELLS/uL
- ABSOLUTE LYMPHOCYTE [1]: 12625.83 CELLS/uL
- ABSOLUTE MONOCYTE [1]: 417.17 CELLS/uL
- ABSOLUTE SEGMENTED NEUTROPHIL [1]: 1595.83 CELLS/uL
- BASOPHIL [1]: 0%
- EOSINOPHIL [1]: 0.33%
- ERYTHROCYTE COUNT [1]: 5.46 x10E6/uL
- HEMATOCRIT [1]: 36.02%
- HEMOGLOBIN [1]: 13.55 G/DL
- LEUKOCYTE COUNT [1]: 14.7 x10E3/uL
- LYMPHOCYTE [1]: 85.83%
- MEAN CORPUSCULAR HEMOGLOBIN [1]: 24.87 pg
- MEAN CORPUSCULAR HEMOGLOBIN CONCENTRATION [1]: 37.65 G/DL
- MEAN CORPUSCULAR VOLUME [1]: 66.03 fL
- MONOCYTE [1]: 2.67%
- NEUTROPHIL [1]: 11.17%
- NUCLEATED RED BLOOD CELLS [1]: 0 /100WBC
- PLATELET COUNT [1]: 1072.33 x10E3/uL
- ALANINE AMINOTRANSFERASE [1]: 63.33 u/L
- ALBUMIN [1]: 4.58 G/DL
- ALKALINE PHOSPHATASE [1]: 285 u/L
- ASPARTATE AMINOTRANSFERASE [1]: 116.5 u/L
- BLOOD UREA NITROGEN [1]: 9.17 mg/dL
- CARBON DIOXIDE [1]: 18.83 mmol/L
- CHLORIDE [1]: 104.5 MEQ/L
- CHOLESTEROL [1]: 68.67 mg/dL
- CREATINE PHOSPHOKINASE [1]: 421 u/L
- CREATININE [1]: 0.58 mg/dL
- GLUCOSE [1]: 160.67 mg/dL
- LACTATE DEHYDROGENASE [1]: 396 u/L
- LIPASE [1]: 10.33 u/L
- PHOSPHORUS [1]: 12.25 mg/dL
- POTASSIUM [1]: 6.42 MEQ/L
- SODIUM [1]: 142.77 MEQ/L
- TOTAL BILIRUBIN [1]: 0.25 mg/dL
- TOTAL PROTEIN [1]: 5.48 G/DL
- URIC ACID [1]: 1.65 mg/dL
- HEMATOCRIT (0 mg/kg, 24 h, dose level Control, time 1 day): 31.9%
- ABSOLUTE EOSINOPHIL [2]: 23.83 CELLS/uL
- ABSOLUTE LYMPHOCYTE [2]: 11026.5 CELLS/uL
- ABSOLUTE MONOCYTE [2]: 98.5 CELLS/uL
- ABSOLUTE SEGMENTED NEUTROPHIL [2]: 667.83 CELLS/uL
- BASOPHIL [2]: 0%
- EOSINOPHIL [2]: 0.17%
- ERYTHROCYTE COUNT [2]: 4.92 x10E6/uL
- HEMOGLOBIN [2]: 12.6 G/DL
- LEUKOCYTE COUNT [2]: 11.82 x10E3/uL
- LYMPHOCYTE [2]: 93%
- MEAN CORPUSCULAR HEMOGLOBIN [2]: 25.7 pg
- MEAN CORPUSCULAR HEMOGLOBIN CONCENTRATION [2]: 39.57 G/DL
- MEAN CORPUSCULAR VOLUME [2]: 64.97 fL
- MONOCYTE [2]: 0.83%
- NEUTROPHIL [2]: 6%
- NUCLEATED RED BLOOD CELLS [2]: 0 /100WBC
- PLATELET COUNT [2]: 872.33 x10E3/uL
- ALANINE AMINOTRANSFERASE [2]: 82.67 u/L
- ALBUMIN [2]: 4.17 G/DL
- ALKALINE PHOSPHATASE [2]: 321.83 u/L
- ASPARTATE AMINOTRANSFERASE [2]: 99.5 u/L
- BLOOD UREA NITROGEN [2]: 13.33 mg/dL
- CARBON DIOXIDE [2]: 33.67 mmol/L
- CHLORIDE [2]: 99.83 MEQ/L
- CHOLESTEROL [2]: 64 mg/dL
- CREATINE PHOSPHOKINASE [2]: 275.33 u/L
- CREATININE [2]: 0.21 mg/dL
- GLUCOSE [2]: 146.17 mg/dL
- LACTATE DEHYDROGENASE [2]: 101 u/L
- LIPASE [2]: 9.83 u/L
- PHOSPHORUS [2]: 8.82 mg/dL
- POTASSIUM [2]: 5.51 MEQ/L
- SODIUM [2]: 143.2 MEQ/L
- TOTAL BILIRUBIN [2]: 0.18 mg/dL
- TOTAL PROTEIN [2]: 5.83 G/DL
- URIC ACID [2]: 0.63 mg/dL
- ABSOLUTE EOSINOPHIL [3]: 44 CELLS/uL
- ABSOLUTE LYMPHOCYTE [3]: 11229.17 CELLS/uL
- ABSOLUTE MONOCYTE [3]: 321.83 CELLS/uL
- ABSOLUTE SEGMENTED NEUTROPHIL [3]: 3421.67 CELLS/uL
- BASOPHIL [3]: 0%
- EOSINOPHIL [3]: 0.33%
- ERYTHROCYTE COUNT [3]: 6.19 x10E6/uL
- HEMATOCRIT [3]: 40.97%
- HEMOGLOBIN [3]: 15.07 G/DL
- LEUKOCYTE COUNT [3]: 15.02 x10E3/uL
- LYMPHOCYTE [3]: 73%
- MEAN CORPUSCULAR HEMOGLOBIN [3]: 24.45 pg
- MEAN CORPUSCULAR HEMOGLOBIN CONCENTRATION [3]: 36.95 G/DL
- MEAN CORPUSCULAR VOLUME [3]: 66.17 fL
- MONOCYTE [3]: 2.17%
- NEUTROPHIL [3]: 24.5%
- NUCLEATED RED BLOOD CELLS [3]: 0 /100WBC
- PLATELET COUNT [3]: 1278.5 x10E3/uL
- ALANINE AMINOTRANSFERASE [3]: 102.5 u/L
- ALBUMIN [3]: 4.68 G/DL
- ALKALINE PHOSPHATASE [3]: 305.83 u/L
- ASPARTATE AMINOTRANSFERASE [3]: 279.83 u/L
- BLOOD UREA NITROGEN [3]: 16.33 mg/dL
- CARBON DIOXIDE [3]: 16.33 mmol/L
- CHLORIDE [3]: 100.33 MEQ/L
- CHOLESTEROL [3]: 70 mg/dL
- CREATINE PHOSPHOKINASE [3]: 845.5 u/L
- CREATININE [3]: 0.19 mg/dL
- GLUCOSE [3]: 129.67 mg/dL
- LACTATE DEHYDROGENASE [3]: 1003.17 u/L
- LIPASE [3]: 9 u/L
- PHOSPHORUS [3]: 15.78 mg/dL
- POTASSIUM [3]: 7.57 MEQ/L
- SODIUM [3]: 142.47 MEQ/L
- TOTAL BILIRUBIN [3]: 0.3 mg/dL
- TOTAL PROTEIN [3]: 6.17 G/DL
- URIC ACID [3]: 3.2 mg/dL
